Reference: the NIST ThermoML archive (doi:10.1016/j.jct.2018.07.017)
± gives the expanded uncertainty stated by the source.

Assays:
[1] = Molar enthalpy of transition or fusion; conditions: Crystal; DSC
[2] = for vapor or sublimation pressure: Transpiration method

Structure (SMILES): CC(C)(O)C(=O)O [2-hydroxy-2-methylpropanoic acid]
- Molar enthalpy of transition or fusion [1]: 17.6 ± 0.6 kJ/mol
- mass density ([2]; 293 K, 101.33 kPa, Crystal, Pycnometric method): 1240 ± 400 kg/m3
- vapor or sublimation pressure ([2]; 313.3 K, Crystal): 0.005081 ± 0.00037 kPa
- vapor or sublimation pressure ([2]; 318.2 K, Crystal): 0.008221 ± 0.00057 kPa
- vapor or sublimation pressure ([2]; 323.2 K, Crystal): 0.01418 ± 0.00095 kPa
- vapor or sublimation pressure ([2]; 328.1 K, Crystal): 0.02187 ± 0.0014 kPa
- vapor or sublimation pressure ([2]; 333.1 K, Crystal): 0.03606 ± 0.0024 kPa
- vapor or sublimation pressure ([2]; 338.1 K, Crystal): 0.05555 ± 0.0036 kPa
- vapor or sublimation pressure ([2]; 343.1 K, Crystal): 0.08884 ± 0.0057 kPa
- vapor or sublimation pressure ([2]; 347.8 K, Crystal): 0.139 ± 0.0088 kPa
- vapor or sublimation pressure ([2]; 356 K, Liquid): 0.2724 ± 0.017 kPa
- vapor or sublimation pressure ([2]; 359.8 K, Liquid): 0.3463 ± 0.022 kPa
- vapor or sublimation pressure ([2]; 363.7 K, Liquid): 0.4479 ± 0.028 kPa
- vapor or sublimation pressure ([2]; 367.7 K, Liquid): 0.5693 ± 0.035 kPa
- vapor or sublimation pressure ([2]; 369.3 K, Liquid): 0.6241 ± 0.039 kPa
- vapor or sublimation pressure ([2]; 371.7 K, Liquid): 0.7211 ± 0.045 kPa
- vapor or sublimation pressure ([2]; 373 K, Liquid): 0.7664 ± 0.048 kPa
- vapor or sublimation pressure ([2]; 375.6 K, Liquid): 0.8814 ± 0.055 kPa
- vapor or sublimation pressure ([2]; 377.1 K, Liquid): 0.9824 ± 0.061 kPa
- vapor or sublimation pressure ([2]; 379.5 K, Liquid): 1.093 ± 0.068 kPa
- vapor or sublimation pressure ([2]; 379.6 K, Liquid): 1.097 ± 0.068 kPa
- Normal melting temperature ([2]; Crystal, DTA): 75 ± 1.1 °C
